Data on six compounds can be found in US20130274235A1, “TREATMENT OF MOTOR NEURON DISEASE” (THE GENERAL HOSPITAL CORPORATION, priority 2010, published 2013).

Where “and” joins values, the source holds several entries; their conditions need not be identical. Equal entries are not always repeated. Entries after “also recorded” stand apart in the source; their conditions may differ. Structures can show the parent of a compound that is named as a salt. Where two headings read alike, the source gives them in different places.

Series [1] concerns motor neurons in primary spinal cord cultures. The experiment in a line: Low-level progressive glutamate excitotoxicity in primary spinal cord cultures. The class given is cell-based, mice. Particulars: drug pretreatment, glutamate/PDC treatments 48 hours apart, FIG. 8. How it is done: Primary spinal cord cultures from E12 pregnant mice were pre-treated for 72 hours with 1 μM, 2.5 μM, 5 μM, or 10 μM of a selected drug according to prior optimized dosing regimen. Drugs tested were identified during screening of qPCR. Subsequently, experimental cultures were grown in the presence of 0, 1.0 μM, 2.5 μM, or 10 μM drug for 24 hours prior to exposure to two glutamate (20 μM)/PDC (1 μM) or glutamate (50 μM)/PDC (10 μM) treatments 48 hours apart. Control samples (no glutamate/PDC treatment) were cultured for 24 hours in the presence of 10 μM drug administered 3 times to determine toxicity of treatment. All cultures were then fixed and stained with ChAT, Hoechst stain of the nuclei, and Islet1/2 antibody labels for the motorneuron columns. Results were analyzed using an In Cell Analyzer (GE Healthcare). Results were presented as percent of vehicle (DMSO) treated control cells.

Series [2] deals with IGF-II mRNA. The experiment in a line: IGF-II expression assay, qPCR detection, in primary spinal cord cultures. It is filed as cell-based, mice. How it is done: Quantitative PCR utilizing SYBR green I (Molecular Probes, Eugene, Oreg.) or specific Taqman probes was used to confirm differential gene expression. RNA extracted from 100-200 LCMed motor neurons were reverse transcribed using Superscript III (Invitrogen). 2 μl of diluted cDNA was amplified (DNA Engine Opticon real-time PCR machine, Bio-Rad), in […] reactions containing 900 nM primer and 250 nM probe in Taqman Universal Master Mix (Applied Biosystems). Reactions were run in duplicate and each gene analyzed in at least three different animals. Reaction parameters were as follows: 50° C. for 2 min, 95° C. for 10 min, and 40 cycles of 95° C. for 15 s and 60° C. for 1 min. Controls lacking template and/or Superscript were included. The absolute copy number for each gene was quantified using a standard curve from human GAPDH plasmid and amplified products were normalized against rat GAPDH expression. Primers and probes (Integrated DNA technologies) were as follows: rat GAPDH: Forward primer: […]
Two libraries of FDA-approved drugs (NINDS and Harvard LDDN) were screened for their ability to up-regulate IGF-II expression. Candidate compounds were screened in an IGF-II expression assay using a qPCR detection methodology in primary spinal cord cultures or using a luciferase reporter assay. In the initial screening, therapeutic candidates were identified as those that increased IGF-II expression by at least 2-fold. […]

Series [3] has as its system spinal motor neurons in primary culture. Description: Neuroprotection against glutamate-induced toxicity in primary spinal cord cultures. The class given is cell-based, rat. Particulars: 10-100 ng/ml, 2-4 h pretreatment; 20 μM glutamate + 100 μM PDC. How it is done:
Time-pregnant Sprague Dawley wild-type rats were anesthetized, decapitated and E15.5 embryos collected, decapitated and spinal cords isolated in Hanks balanced salt solution (HBSS, Invitrogen). Dissections of spinal cords were done carefully to avoid the inclusion of somites or other external tissues. Cells were dissociated by gentle trituration and incubation with papain (Worthington Biochemical Corporation). Cells were cultured for 6 days in Neurobasal media (Invitrogen) containing 10% fetal bovine serum (FBS, Fisher scientific), 1×B27 supplement (Invitrogen), 500 μM glutamine (Invitrogen), […] mercaptoethanol (Invitrogen), Penicillin-Streptomycin (Invitrogen) or in DMEM/F12 (Invitrogen) containing 5% FBS, 1×N2 supplement A (Stem Cell Technologies), glucose (0.36%, Sigma), bovine serum albumin (0.25%, Invitrogen), Penicillin-Streptomycin (Invitrogen). Either culture media could maintain spinal cord cultures containing motor neurons. […]
For immunofluorescent staining, coverslips/sections were rinsed with phosphate buffered saline and incubated with blocking buffer (see above) for 1 h. […] The effect of glutamate, IGF-II and/or guanine deaminase on motor neuron survival was carefully evaluated, as was the co-localization of motor neuron markers.

For series [4], the system named is IGF-II protein. Description: IGF-II protein expression in primary spinal cord cultures, quantitated by ELISA. It is filed as cell-based, mice. The text has this: Further results of the library screening identified the following therapeutic agents as having a significant inducing effect on IGF-II expression in primary spinal cord cultures and are useful for treating motor neuron disease. Protein expression was quantitated by ELISA.
In general terms: ELISA stands for enzyme-linked immunosorbent assay.

The subject of series [5] is IGF-II P4 promoter. Description: Luciferase reporter assay, P4 IGF-II promoter cell line (SK-N-FI cells). The class given is cell-based. As to conditions: FIG. 9, HCl. How it is done: pGL4.17[luc/Neo] reporter constructs were transfected to contain the P4 IGF-II promoter using the Blue Heron Bio GeneMaker. After transfection of reporter constructs into SK-N-FI cells+IGF-II using G418 selection pressure for generation of stable cell-line, clonal expansion, IGF-II up-regulating drugs such as glucocorticoids were added, and luminescence was measured. The cell lines were optimized for luciferase intensity, background, and responsiveness. The transfected cells were then used to screen the drug libraries described above
The P4 promoter cell line was cultured as described above. Eight drugs that were positive in the small library screen were tested as described above, and luciferase luminescence was measured. Of the eight tested drugs, four acted on the P4 IGF-II promoter. The best-performing non-glucocorticoid candidate that was tested was Vardenafil HCl. […] Vardenafil HCl is a phosphodiesterase type 5 (PDE5) inhibitor with a structure as shown in FIG. 11 and is known to increase cellular cGMP. Vardenafil has been previously FDA approved for treatment of erectile dysfunction and is also clinically used for treating pulmonary hypertension, and is in preclinical studies as a treatment of cystic fibrosis.
On the technique in general: In a reporter assay the amount or activity of a reporter protein is the signal.

The test system of series [6] is IGF-II P4 promoter. Particulars: cited from earlier work.

On to `N=C(N)N/N=C/c1c(Cl)cccc1Cl` [Guanabenz acetate], for which, in series [1], the “protection of motor neurons against glutamate/PDC excitotoxic insult” value is listed as “provided a level of protection”. Further, the “Fold Increase in IGF-II mRNA Expression” value in series [2] came out at 3.8 fold. Besides, the “induction of IGF-II expression (in words)” value in series [2] (antihypertensive agents, FIGS. 5 and 6) was “most active”.

Regarding “IGF-II: recombinant IGF-II (R&D Systems), added exogenously to primary spinal cord cultures”, the “protection of motor neurons from glutamate-induced toxicity” value in series [3] is given as “blocked glutamate-induced motor neuron loss completely; also recorded: protected motor neurons against the toxicity; also recorded: protected motor neurons from glutamate-induced toxicity”.

Consider `CCCc1nc(C)c2c(=O)[nH]c(-c3cc(S(=O)(=O)N4CCN(CC)CC4)ccc3OCC)nn12` [Vardenafil HCl], for which, in series [4], the “Fold Increase in IGF-II Protein Expression” value is given as 1.6 fold and the “IGF-II Protein Expression (pg/ml in media)” value is given as “(245 ± 27) pg/ml”. Further, the “protection of motor neurons against glutamate/PDC excitotoxic insult” value in series [1] (HCl) is “provided a level of protection; also recorded: rescues primary motor neurons from low-level progressive glutamate toxicity”. In series [5], the “luciferase luminescence, activation of P4 IGF-II promoter” value was “roughly equal to those of Hydrocortisone at three concentrations; also recorded: activation, as shown in FIG. 9, at a level similar to the known P4 activator hydrocortisone”. Moreover, in series [2] (HCl), the “Fold Increase in IGF-II mRNA Expression” value was 6.5 fold and 6.5 ± 0.2 fold.

For `C[C@]12CCC(=O)C=C1CC[C@@H]1[C@@H]2[C@@H](O)C[C@@]2(C)[C@H]1CC[C@]2(O)C(=O)CO` [hydrocortisone], the “P4 IGF-II promoter activation (known)” value in series [6] is given as “known P4 activator”.

For `CC(C(=O)O)c1ccc(-c2ccccc2)c(F)c1` (centres unmarked) [Flurbiprofen], in series [4], the “Fold Increase in IGF-II Protein Expression” value was determined as 1.2 fold and the “IGF-II Protein Expression (pg/ml in media)” value is reported as “(121 ± 27) pg/ml”. The “Fold Increase in IGF-II mRNA Expression” value in series [2] is 2.5 fold and 2.5 ± 0.5 fold. Besides, in series [2] (NSAID series, FIGS. 3 and 4), the “induction of IGF-II expression (fold induction)” value is given as 2.5±0.5 fold.

For `CCC(=O)NCC[C@@H]1CCc2ccc3c(c21)CCO3` [Ramelteon], in series [4], the “Fold Increase in IGF-II Protein Expression” value worked out at 1.5 fold and the “IGF-II Protein Expression (pg/ml in media)” value is given as “(201 ± 10) pg/ml”. Besides, in series [2], the “Fold Increase in IGF-II mRNA Expression” value is 3.4 ± 1.3 fold.
